Reference: PubChem BioAssay (NCI)
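Step 1: Grow cells in 96-well plates. Step 2: Expose to compound for 48 hours at 5 concentrations. Step 3: Interpolate endpoints linearly; if unreached, use highest concentration. The concentration for 50% growth inhibition is given as GI50. Definition used: TGI = concentration required for complete inhibition of growth.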

Tests used:
Experiment in all cases: NCI-60 cell line screen, 48 h
HT29 colon = tested on: HT29 colon
NCI-H23 lung = tested on: NCI-H23 lung
LOX IMVI melanoma = tested on: LOX IMVI melanoma
HS 578T breast = tested on: HS 578T breast
SK-OV-3 ovarian = tested on: SK-OV-3 ovarian
KM12 colon = tested on: KM12 colon
COLO 205 colon = tested on: COLO 205 colon
SR leukemia = tested on: SR leukemia
A549 NSCLC = tested on: A549 NSCLC
SF-295 CNS = tested on: SF-295 CNS

SMILES | GI50 (HT29 colon) [µM] | TGI (HT29 colon) [µM] | GI50 (NCI-H23 lung) [µM] | TGI (NCI-H23 lung) [µM] | GI50 (LOX IMVI melanoma) [µM] | TGI (LOX IMVI melanoma) [µM] | GI50 (HS 578T breast) [µM] | TGI (HS 578T breast) [µM] | GI50 (SK-OV-3 ovarian) [µM] | TGI (SK-OV-3 ovarian) [µM] | GI50 (KM12 colon) [µM] | TGI (KM12 colon) [µM] | GI50 (COLO 205 colon) [µM] | TGI (COLO 205 colon) [µM] | GI50 (SR leukemia) [µM] | TGI (SR leukemia) [µM] | GI50 (A549 NSCLC) [µM] | TGI (A549 NSCLC) [µM] | GI50 (SF-295 CNS) [µM] | TGI (SF-295 CNS) [µM]
C/C(=C\c1ccn(-c2ccc(N)cc2)n1)[C@@H]1C[C@@H]2O[C@]2(C)CCC[C@H](C)[C@H](O)[C@@H](C)C(=O)C(C)(C)[C@@H](O)CC(=O)O1 | 0.0187 | > 50 | 0.0594 | > 50 | 0.0273 | > 50 | 0.0863 | > 21.6 | 0.226 | > 50 | 0.0196 | > 50 | 0.0175 | 0.634 | 0.027 | > 50 | 0.0348 | > 50 | 0.0721 | > 50
CO[C@H](C(=O)N[C@@H](CCCCNC(=O)OCc1ccccc1)C(=O)OC(C)(C)C)[C@@H]1Cc2cc3cc(OC4CC(OC5CC(O)C(O)C(C)O5)C(O)C(C)O4)c(C)c(O)c3c(O)c2C(=O)[C@H]1OC1CC(OC2CC(OC3CC(C)(O)C(O)C(C)O3)C(O)C(C)O2)C(O)C(C)O1 (some centres undefined) | 0.508 | > 10 | 0.667 | 2.37 | 0.434 | 2.4 | 1.05 | 5 | 1.02 | 2.81 | 0.603 | 2.05 | 0.689 | 3.63 | 0.319 | > 10 | 0.821 | 5.28 | 0.468 | 1.72
Cc1ccc(NC(=O)c2ccnc(N3CCCC3)c2)cc1-c1ccc(C(=O)NCC2CC2)cc1 | > 25 | > 25 | > 25 | > 25 | > 25 | > 25 | > 25 | > 25 | > 25 | > 25 | > 25 | > 25 | > 25 | > 25 | 13 | > 25 | > 25 | > 25 | > 25 | > 25
COC(=O)C#Cc1ccc([N+](=O)[O-])cc1 | – | 3.23 | – | 3.68 | – | 2.64 | – | 47.5 | – | 19 | – | 3.9 | – | 3.41 | – | 1.07 | – | 7.44 | – | 10.9
COc1cnc2c(c1)C(=O)c1c-2n(CCCN2CCN(C)CC2)c(=O)c2cc(Cl)ccc12 | 1.37 | > 100 | 6.27 | 24.6 | 0.779 | 18.9 | 12.9 | 36.2 | 10.1 | 36.4 | 3.37 | 20.5 | 1.3 | > 100 | 0.584 | 27.3 | 4.17 | > 100 | 0.674 | 20.5
O=C(/C=C\Sc1nccc(C(F)(F)F)n1)c1ccc(Br)cc1 | 19.6 | 41.6 | 22.8 | 52.6 | 13.7 | 27.2 | 40.5 | > 100 | > 100 | > 100 | 38.1 | > 100 | 18.6 | 36.5 | 11.1 | 26.3 | > 100 | > 100 | > 100 | > 100
C/C(=C\c1c[nH]c2ccccc12)[N+](=O)[O-] | 3.02 | 12.9 | 10.2 | 22.6 | 1.89 | 4.86 | 7.61 | 43.8 | 11.4 | 23.7 | 3.98 | 15.6 | 5.06 | 17.4 | 1.15 | 4.25 | 5.85 | 21.4 | 7.97 | 22.7
CN1CCN(Cc2ccc(NC(=O)c3cncc(C#Cc4c(N)ncc5cc(F)ccc45)c3)cc2C(F)(F)F)CC1 | 0.276 | 1.15 | 1.36 | 4.65 | 0.587 | 1.26 | 1.11 | 6.47 | 6.3 | 13 | 0.0172 | 0.738 | 0.581 | 4.93 | 1.47 | 50 | 0.887 | 1.73 | 6.47 | 14
ON(CCc1ccccn1)Cc1ccccc1 | – | > 100 | – | > 100 | – | > 100 | – | > 100 | – | > 100 | – | > 100 | – | > 100 | – | > 100 | – | > 100 | – | > 100
COc1cccc2c1c1nc3cc(C)c(C)cc3nc1n2CCN(C)C | 1.68 | 10.7 | 1.66 | 5.57 | 1.04 | 8.7 | 1.8 | 6.99 | 2.02 | 12.2 | 1.83 | 9.43 | 0.767 | 3.31 | 0.452 | 8.7 | 1.99 | 12 | 2.17 | 7.62
O=C(Nc1ccc(Br)c(Cl)c1)c1cc(F)ccc1O | 1.71 | 8.35 | 0.36 | 3.17 | 0.553 | 3.04 | 0.719 | > 15.5 | 0.633 | 3.79 | 1.36 | 5.23 | 2.75 | 13.9 | 0.547 | – | 1.75 | > 50 | 0.933 | 1.89
